From ChEMBL document CHEMBL1201862, “PubChem BioAssay data set” (2004)
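Exposure lasted 48 hours, with cells grown in 96-well plates and compounds tested at five concentrations. GI50: concentration for 50% inhibition of growth.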 Activity calls are given as the source filed them. Rule as the data show it: active = GI50 up to about 1.1 µM and inactive = higher.

Legend:
Experiment in all cases: NCI tumour cell line growth inhibition, 48 h
A498 = tested on: A498
HCC 2998 = tested on: HCC 2998
HCT-15 = tested on: HCT-15
IGROV-1 = tested on: IGROV-1
M14 = tested on: M14
NCI-H460 = tested on: NCI-H460
OVCAR-3 = tested on: OVCAR-3
OVCAR-4 = tested on: OVCAR-4
RPMI-8226 = tested on: RPMI-8226
RXF 393 = tested on: RXF 393
SF-295 = tested on: SF-295
SF-539 = tested on: SF-539
SN12C = tested on: SN12C
TK-10 = tested on: TK-10
UACC-257 = tested on: UACC-257
UO-31 = tested on: UO-31
DU-145 = tested on: DU-145
MDA-MB-435 = tested on: MDA-MB-435
NCI/ADR-RES = tested on: NCI/ADR-RES
MDA-N = tested on: MDA-N

| SMILES | GI50 (A498) | GI50 (HCC 2998) | GI50 (HCT-15) [µM] | GI50 (IGROV-1) | GI50 (M14) | GI50 (NCI-H460) | GI50 (OVCAR-3) | GI50 (OVCAR-4) | GI50 (RPMI-8226) | GI50 (RXF 393) | GI50 (SF-295) | GI50 (SF-539) | GI50 (SN12C) | GI50 (TK-10) | GI50 (UACC-257) | GI50 (UO-31) | GI50 (DU-145) | GI50 (MDA-MB-435) | GI50 (NCI/ADR-RES) | GI50 (MDA-N) |
| --- | --- | --- | --- | --- | --- | --- | --- | --- | --- | --- | --- | --- | --- | --- | --- | --- | --- | --- | --- | --- |
| c1cnc2c3[nH]cc4[nH]c5ccccc5c4c-3nc2c1 | > 100 µM (inactive) | 52.4 µM (inactive) | 67.5 | > 100 µM (inactive) | > 100 µM (inactive) | 35.6 µM (inactive) | 53 µM (inactive) | 44 µM (inactive) | 27.6 µM (inactive) | 93.3 µM (inactive) | 47.9 µM (inactive) | 93.3 µM (inactive) | > 100 µM (inactive) | > 100 µM (inactive) | > 100 µM (inactive) | 42.4 µM (inactive) |  |  |  |  |
| N#Cc1c(N)c2c(c(-c3ccccc3)c1-c1ccccc1)C(=O)N(NC(=S)Nc1ccccc1)C2=O | 43.3 µM (inactive) | > 100 µM (inactive) | 71.8 | 43 µM (inactive) | > 100 µM (inactive) | 61.4 µM (inactive) | 64.4 µM (inactive) | 51.1 µM (inactive) | 16.7 µM (inactive) | 16.9 µM (inactive) | 68.5 µM (inactive) | 89.9 µM (inactive) | > 100 µM (inactive) | 84.5 µM (inactive) | > 100 µM (inactive) | 34.1 µM (inactive) | > 100 µM (inactive) | > 100 µM (inactive) | 59.3 µM (inactive) |  |
| O=C1C=CC=C/C1=C1\N=C(c2ccccc2OCC(=O)c2ccccc2)SS1 | > 100 µM (inactive) | > 100 µM (inactive) | > 100 | > 100 µM (inactive) | > 100 µM (inactive) | > 100 µM (inactive) | > 100 µM (inactive) | > 100 µM (inactive) | > 100 µM (inactive) | > 100 µM (inactive) | 74.5 µM (inactive) | 86.7 µM (inactive) | > 100 µM (inactive) | > 100 µM (inactive) | > 100 µM (inactive) | > 100 µM (inactive) |  | > 100 µM (inactive) | > 100 µM (inactive) | > 100 µM (inactive) |
| Nc1nc(S)nc(C(=O)Nc2nccs2)c1-c1ccccc1 | > 100 µM (inactive) | > 100 µM (inactive) | > 100 | > 100 µM (inactive) | > 100 µM (inactive) | > 100 µM (inactive) | > 100 µM (inactive) | > 100 µM (inactive) | > 100 µM (inactive) | > 100 µM (inactive) | > 100 µM (inactive) | > 100 µM (inactive) | > 100 µM (inactive) | > 100 µM (inactive) | > 100 µM (inactive) | > 100 µM (inactive) |  |  |  |  |
| CN(C)c1ccc(/C=C2\C[C@H]3[C@@H]4CC=C5C[C@@H](O)CC[C@]5(C)[C@H]4CC[C@]3(C)[C@H]2O)cc1 | 17.2 µM (inactive) |  | 15.7 | 19.2 µM (inactive) | 18.2 µM (inactive) | 14.4 µM (inactive) | 22.5 µM (inactive) | 35.6 µM (inactive) | 29.9 µM (inactive) | 25.5 µM (inactive) | 20 µM (inactive) | 10.2 µM (inactive) | 12.8 µM (inactive) | 18.5 µM (inactive) | 18.2 µM (inactive) | 19.3 µM (inactive) | 34.1 µM (inactive) |  | 18.4 µM (inactive) | 20.2 µM (inactive) |
| COc1ccc(CN2CCC/C=C/CC(Cl)(Cl)C2=O)cc1 | 19.2 µM (inactive) | 35.3 µM (inactive) | 34.2 | 38.4 µM (inactive) | 20.1 µM (inactive) | 29.4 µM (inactive) | 34.8 µM (inactive) | 23 µM (inactive) | 24.3 µM (inactive) | 17 µM (inactive) | 20.5 µM (inactive) | 33.6 µM (inactive) | 37.9 µM (inactive) | 29.7 µM (inactive) |  | 21.2 µM (inactive) |  |  |  |  |
| Cc1c(C#N)c(N)[nH]c(=S)c1C#N | > 100 µM (inactive) | > 100 µM (inactive) | > 100 | > 100 µM (inactive) |  | > 100 µM (inactive) | > 100 µM (inactive) |  | > 100 µM (inactive) | > 100 µM (inactive) | > 100 µM (inactive) | > 100 µM (inactive) | > 100 µM (inactive) | > 100 µM (inactive) | > 100 µM (inactive) | > 100 µM (inactive) | > 100 µM (inactive) |  |  | > 100 µM (inactive) |
| CCOC1(OCC)N=C(N)C2(C#N)C3(C(=O)N(C(C)C)N=C3C)C12C#N (stereo not drawn) | > 100 µM (inactive) | > 100 µM (inactive) | > 100 | > 100 µM (inactive) | > 100 µM (inactive) | > 100 µM (inactive) | 44.3 µM (inactive) | > 100 µM (inactive) | > 100 µM (inactive) | > 100 µM (inactive) | > 100 µM (inactive) | > 100 µM (inactive) | > 100 µM (inactive) |  | > 100 µM (inactive) | > 100 µM (inactive) | > 100 µM (inactive) | > 100 µM (inactive) | > 100 µM (inactive) |  |
| Brc1ccc2[nH]cc([C@@H]3CN[C@@H](c4c[nH]c5ccc(Br)cc45)CN3)c2c1 | 15 µM (inactive) | 6.52 µM (inactive) | 9.44 | 3.41 µM (inactive) | 5.25 µM (inactive) | 7.57 µM (inactive) | 4.8 µM (inactive) | 4.76 µM (inactive) | 2.12 µM (inactive) | 5.48 µM (inactive) | 3.72 µM (inactive) | 10.6 µM (inactive) | 6.04 µM (inactive) | 6.92 µM (inactive) | 8.95 µM (inactive) | 2.42 µM (inactive) | 3.47 µM (inactive) | 3.9 µM (inactive) | 7.66 µM (inactive) |  |
| COc1cc2c(oc(=O)c3c4oc([Si](C)(C)C)cc4cc(OC)c23)c2cccc(OCc3ccccc3)c12 | 31.4 µM (inactive) | > 64.3 µM (inactive) | > 70.5 | 50.5 µM (inactive) | 26.3 µM (inactive) | 53.7 µM (inactive) | 34.8 µM (inactive) | 33.1 µM (inactive) | 28.4 µM (inactive) | > 33.5 µM (inactive) | 19 µM (inactive) | 20.7 µM (inactive) | > 100 µM (inactive) | 37.2 µM (inactive) | 47.6 µM (inactive) | > 63.7 µM (inactive) |  |  |  |  |
| O=C(Nc1nnc(S)[nH]1)C(=O)C(C(=O)c1ccc2ccccc2c1)C1OC(=O)c2ccccc21 (stereo not drawn) | > 100 µM (inactive) | 11.5 µM (inactive) | 27.9 | 20.4 µM (inactive) | 19.1 µM (inactive) | > 100 µM (inactive) | 15.5 µM (inactive) | 16.2 µM (inactive) | 7.69 µM (inactive) | 10.6 µM (inactive) |  | 5.56 µM (inactive) | 18.2 µM (inactive) | 21.6 µM (inactive) | 19.7 µM (inactive) | 15.7 µM (inactive) |  |  |  |  |
| CS(=O)(=O)OCCCOS(C)(=O)=O | > 100 µM (inactive) | > 100 µM (inactive) | > 100 | > 100 µM (inactive) | > 100 µM (inactive) | > 100 µM (inactive) | > 100 µM (inactive) | > 100 µM (inactive) | > 100 µM (inactive) | > 100 µM (inactive) | > 100 µM (inactive) | > 100 µM (inactive) | > 100 µM (inactive) | > 100 µM (inactive) | > 100 µM (inactive) | > 100 µM (inactive) |  |  |  |  |
